Laboratory results taken from article PMC11249646, “Small-Molecule Disruptors of the Interaction between Calcium- and Integrin-Binding Protein 1 and Integrin αIIbβ3 as Novel Antiplatelet Agents” (ACS Pharmacology & Translational Science, 2024).
Read-outs that look alike come from different tables or passages of the source.

Target: T1, CIB1 and αIIb interaction (CIB1-GST : F-αIIb peptide) (Homo sapiens, UniProt Q99828)
T1 construct: made in house; host or cells: BL-21 plus RIL cells (E. coli)
T1 sequence (Q99828 1-191): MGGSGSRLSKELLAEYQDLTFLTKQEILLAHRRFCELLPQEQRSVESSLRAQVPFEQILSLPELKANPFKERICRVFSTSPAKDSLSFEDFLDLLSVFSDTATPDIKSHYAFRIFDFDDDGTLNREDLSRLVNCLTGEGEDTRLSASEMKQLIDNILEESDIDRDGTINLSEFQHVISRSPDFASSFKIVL
Assay: FP assay, 1536-well qHTS format (primary and confirmatory screen)
Type: binding
Details: for Efficacy (%): negative = inhibition; for IC50: read-out: IC50; for Curve Class: negative sign = inhibitory curve

[1] = qHTS primary screen hits, Table S2
[2] = qHTS primary screen hits, Table S2, several classes where COUNT > 1
[3] = qHTS primary screen of LOPAC/NPACT libraries

SMILES	Efficacy (%) [1] [%]	Curve Class [2]	IC50 [1] [µM]	Efficacy (%) [3] [%]	Curve Class [3]	IC50 [3] [µM]	other results
Cc1c(C)n(Cc2ccc(-c3ccccc3C(=O)O)cc2)c2ccc(C(=O)N[C@@H](C)c3ccc([N+](=O)[O-])cc3)cc12 [NCGC00347955-01]	–	–	–	–	–	–	Efficacy (%) (qHTS FP screen hits, Table S2): -32%; IC50 (qHTS FP screen hits, Table S2): 23.5 µM
O=C(Nc1nc(-c2ccccc2)cs1)c1ccncc1NS(=O)(=O)c1ccc(F)c(F)c1.O=C(O)C(F)(F)F [NCGC00344933-01]	-34	-3	79.4	–	–	–	–
C=C1CCC2C(C)(COC(C)=O)CCCC2(C)C1CCC(C)CC(=O)O (centres unmarked) [NCGC00384884-01]	–	–	–	-20	-1.4	17.8	–
CN(C)CCCNc1cc(O)c2ncccc2c1.O=C(O)C(F)(F)F [NCGC00183792-01]	-32	–	56.2	–	–	–	Curve Class [1]: -2.4
Cc1ccc(C)n1-c1ccc(C(=O)O)cc1.O=C(O)C(F)(F)F [NCGC00273552-01]	-38	-2.2	44.7	–	–	–	–
Cc1cc(N2CCN(c3ccccc3)CC2)nc(-n2nc(C)cc2C)n1.O=C(O)C(F)(F)F [NCGC00067399-02]	-30	–	56.2	–	–	–	Curve Class [1]: -2.4
C=CCc1ccccc1OCC(O)CN[C@]1(C)CCC[C@H](C(C)(C)NC(=O)CBr)C1 (some centres unmarked) [NCGC00162095-02]	–	–	–	-35	-2.4	56.2	–
COc1cc2c(cc1OC)-c1[nH]nc(Nc3cccc(F)c3)c1C2 [NCGC00343986-02]	–	–	–	-25	-2.4	63.1	–
O=C1OCc2cc3cccc(O[C@@H]4O[C@H](CO)[C@@H](O)[C@H](O)[C@H]4O)c3c(O)c21 [NCGC00169010-02]	–	–	–	-30	-2.4	22.4	–
COc1ccc(Nc2cc(C)nc(-n3nc(C)cc3C)n2)cc1Cl.O=C(O)C(F)(F)F [NCGC00134126-02]	-30	-2.4	50.1	–	–	–	–
COc1cccc(S(=O)(=O)Nc2cnccc2C(=O)Nc2nc(-c3ccccc3)cs2)c1.O=C(O)C(F)(F)F [NCGC00344906-01]	-33	-2.2	50.1	–	–	–	–
O=C(O)CCCC[P+](c1ccccc1)(c1ccccc1)c1ccccc1.[Br-] [NCGC00261975-01]	-44	-2.4	56.2	–	–	–	–
O=S1(=O)OC(c2ccc(O)cc2)(c2ccc(O)cc2)c2ccccc21 [NCGC00013109-03]	-72	–	44.7	–	–	–	Curve Class [1]: -2.4
COc1ccccc1N1CCNCC1.Cl [NCGC00015906-04]	-80	–	79.4	–	–	–	Curve Class [1]: -3
O=C(c1cc(O)c(O)c([N+](=O)[O-])c1)c1ccccc1F [NCGC00015881-04]	–	–	–	-35	-2.2	39.8	–
CC(=O)NC(C)c1cc(Cl)c2cccnc2c1O (centres unmarked) [NCGC00183686-01]	-34	-2.4	44.7	–	–	–	–
O=C1CCC(N2C(=O)c3ccccc3C2=O)C(=O)N1 (centres unmarked) [NCGC00015989-17]	-28	-2.4	50.1	–	–	–	–
CCCC(C(=O)OCCN(CC)CC)(c1ccccc1)c1ccccc1.Cl [NCGC00015799-04]	–	–	–	-14	-2.4	56.2	–
